Consider four compounds from patent US11584727B2, “2-thioxothiazolidin-4-one derivatives active as transthyretin ligands and uses thereof” (BSIM Therapeutics, S.A., priority 2014, dated 2023).

Data set [1] has as its target T1, wild type transthyretin (WT-TTR) (Homo sapiens, UniProt P02766).
T1 construct: made in house; host or cells: E. coli BL21 (DE3), pET23a plasmid
The experiment in a line: WT-TTR amyloid fibril formation assay (turbidimetry, acid-induced). In kind it is biochemical. The note with it: pH 4.4, 72 hours; for Fibril Formation (%): WT-TTR 3.6 μM, 1:1 TTR-compound stoichiometry, 37° C., normalized to no-compound control (100%); for IC50: WT-TTR fixed at 3.6 μM, ten compound concentrations. The protocol: (§1) The first set of evaluations is based on a fast, stagnant fibril formation assay that is used for the early screening of compounds, be they virtual screening hits or newly synthesized analogues. In this assay, a solution of the compound under test at 1.8, 3.6 or 7.2 μM is added to a solution of TTR at 3.6 μM, so that there is enough compound to bind to either one or both of TTR's binding sites. The pH of the resulting solution is then lowered to 4.4 to promote amyloidogenesis. The process of amyloid fibril formation over time is assessed by turbidimetry measurements at three different wavelengths (405, 450 and 490 nm, or at 550, 600 and 650 nm when the compound absorbs light at the previous wavelengths), using a spectrophotometer endowed with a BioTek microplate reader. The extent of fibril formation of each mixture is determined by normalizing a sample with the protein (TTR), in absence of compounds, which, at the end of 72 hours, represents 100% of amyloid fibril formation. In each experiment, each compound concentration is tested in triplicate. For each compound concentration and incubation time, the arithmetic mean of the triplicate experiments is calculated, as well as the arithmetic mean of the three measured wavelengths. High activity can be defined as a percentage of fibril formation below 10% at compound concentration 7.2 μM (TTR:compound stoichiometry 1:2) and below 40% at 3.6 μM (TTR:compound stoichiometry 1:1).
The in vitro activity of the compounds was assessed through a biochemical assay based on turbidimetry measurements, in which fibril formation is induced by acidification of the solution to pH 4.4 after incubation with the hit compound to be tested. The amount of amyloid fibrils formed is then monitored throughout 72 hours. Further details on this assay are provided in the “Evaluation of amyloid inhibition in vitro” subsection in “Materials and Methods”.
Experimental evaluation of the in vitro activity of virtual screening hits against amyloid fibril formation by TTR was carried out using a biochemical assay based on turbidimetry measurements. In this assay, fibril formation is induced by acidification of the solution to pH 4.4 after incubation with the hit compound to be tested. The amount of amyloid fibrils formed is monitored over 72 hours. Further details on the assay are provided in the “Evaluation of amyloid inhibition in vitro” subsection below.
(§2) Purchased virtual screening hits and all synthesized (optimization) derivatives were dissolved in DMSO to a final concentration of 10.8 mM to provide a primary stock solution. Several secondary stock solutions were prepared in DMSO by dilution of the primary stock solution and the concentrations were chosen depending on the effectiveness of the compound in inhibiting the TTR amyloid fibril formation.
(§3) The fibril formation assay was adapted to run in a high-throughput screening mode. For this purpose, 96-well microplates were used with a final assay volume of 100 μL.
(§4) One microLitre (μL) of different compound secondary stock solutions was added to 50 μL of a 7.2 μM wild type TTR (WT-TTR) or Val122Ile-TTR (V122I-TTR) solutions in 10 miliMolar (mM) sodium phosphate buffer, 100 mM KCl and 1 mM EDTA, pH 7.2, previously dialyzed against the same buffer solution. After 30 minutes of incubation at room temperature, the pH of the mixture was lowered to 4.4 with 49 μL of 200 mM acetate buffer, 100 mM KCl and 1 mM EDTA, pH 4.3.
The mixtures were incubated at 37° C. during 72 hours. Turbidity at 405 nm, 450 nm and 490 nm (or at 550, 600 and 650 nm when the test compound absorbs light at the previous wavelengths) was measured over time (0, 17, 24, 41, 48, 65 and 72 hours) using a BioTek Microplate Spectrophotometer to evaluate the extent of fibril formation. Immediately before the turbidity measurements, the mixtures were gently shacked during 1 minute to homogenize well and not damage the formed amyloid aggregates and fibrils.

The nature of data set [2]: HepG2 cell viability, resazurin reduction assay. In kind it is cell-based. The note with it: human, HepG2 hepatoma cells, approximately 72 hours incubation, read-out: inhibitory dose (ID50), cell viability. An excerpt:
Cell viability of HepG2 hepatoma cells was quantified in order to assess the toxicity of the compounds at increasing concentrations. The used assay is described in detail in the “Experimental Evaluation of Cytotoxicity of Compounds using Cell-based Assays” section in “Materials and Methods”. This is a relevant assessment not just to discard potential concerns of liver damage (which is a problem reported for many drugs) but also because of the long-term nature of the treatments that patients suffering from TTR-mediated amyloidoses need to undertake.
Adherent human hepatoma cells HepG2 were cultured in DMEM (Dulbecco's Modified Eagle's Medium) with 10% fetal bovine serum (FBS), 100 U/mL penicillin, […] streptomycin, and 1 mM sodium pyruvate. The cells were grown in 75 cm^2 culture flasks at 37° C., in an atmosphere of 5% CO2, and subcultured twice a week using a trypsin-EDTA solution.
Upon 3 to 4 days of growth and reaching approximately 90% confluence, HepG2 cells were plated in 96-well microplates with cell density of 12×10^3 cells/well and in a volume of 100 μL per well.
The compounds are dissolved in DMSO and subsequently diluted in DMEM (in 9 intermediate […] concentrations). After adhesion of HepG2 cells to the microplates, […] 100 μL of each solution of intermediate compound concentration were added to each well (in quadruplicate). Positive controls were done with 10 wells containing only cells; solvent controls resulted from the analysis of the three highest DMSO concentrations tested and were carried out in triplicate.
After addition of the compounds to the cells, the microplates were incubated for approximately 72 hours at 37° C. in an atmosphere of 5% CO2 until the cell viability assay was performed.
The cell viability of HepG2 cells in the presence of test compounds was assessed by the resazurin reduction assay. Resazurin is a redox indicator that is converted into resorufin through reduction reactions of metabolically active cells. In the oxidized form it presents a purplish blue color, while the reduced form presents a purple-pink color.
A stock solution of 0.01% resazurin in PBS is diluted 1:10 in incomplete RPMI 1640 cell medium (without addition of antibiotics and FBS). After washing the cells with 200 μL PBS containing Ca^2+ and Mg^2+, 200 μL of resazurin 0.001% are added to the wells. Control runs with incomplete RPMI 1640 medium only and (without cells) are done in triplicate. […]
To quantify the reduction of resazurin to resorufin, microplate absorbance readings were taken at two wavelengths, 540 nm (reduced form) and 630 nm (oxidized form), in a Biotek spectrophotometer microplate reader. The percentage of viable cells at each compound concentration is determined using the formula: […]
For orientation: The colour change of resazurin is a common sign of viable cells or microbes.

For data set [3], the target named is Val122Ile transthyretin (V122I-TTR) (Homo sapiens, UniProt P02766, V142I). Briefly: V122I-TTR amyloid fibril formation assay (turbidimetry, acid-induced). The format is biochemical. The conditions noted are these: pH 4.4, 72 hours. The protocol: as §1, §2, §3, §4
The mixtures were incubated at 37° C. during 72 hours. Turbidity at 405 nm, 450 nm and 490 nm (or at 550, 600 and 650 nm when the test compound absorbs light at the previous wavelengths) was measured over time (0, 17, 24, 41, 48, 65 and 72 hours) using a BioTek Microplate Spectrophotometer to evaluate the extent of fibril formation. Immediately before the turbidity measurements, the mixtures were gently shacked during 1 minute to homogenize well and not damage the formed amyloid aggregates and fibrils. The final turbidity was calculated as an average of the three wavelengths measured.
In addition, control samples containing TTR with no inhibitor and 1% DMSO, as well as inhibitor in absence of TTR were tested and analyzed.
The extent of amyloid fibril formation data was normalized to TTR in the absence of inhibitor, assigned to be 100% fibril formation (or 0% amyloid inhibition) at the end of the experiment.
The extent of amyloid fibril formation throughout 72 hours was determined as described in the “Evaluation of amyloid inhibition in vitro” subsection above.
IC50 values were calculated from the inhibition curves obtained by fitting the values by a nonlinear curve method using the OriginPro7 (OriginLab Corporation, USA).

Another data set has as its system FAP patients. The note with it: 18-month phase-III clinical trial; cited from earlier work.
For another data set, the system named is AD/TTR+/− mice. The note with it: cited from earlier work.

A value given as a limit tells only on which side of the number the result lay.

As for `O=C(O)CN1C(=O)/C(=C/c2cc(F)c(O)c(F)c2)SC1=S` [AT50-A06, (Z)-3-hydroxycarbonylmethyl-5-(3′,5′-difluoro-4′-hydroxyphenylmethylidene)-2-thioxothiazolidin-4-one], the melting point fell in the range of 221 to 222 °C. In addition, in data set [1], the “Fibril Formation (%)” value worked out at 28% and the IC50 is 1810 ± 400 nM. The IC50 at 72 h in data set [2] is more than 400000 nM.
Regarding `O=C(O)CN1C(=O)/C(=C/c2cc(Cl)c(O)c(Cl)c2)SC1=S` [AT50-A03, (Z)-3-hydroxycarbonylmethyl-5-(3′,5′-dichloro-4′-hydroxyphenylmethylidene)-2-thioxothiazolidin-4-one], the melting point was in the range of 262 to 264 °C. Also, in data set [1], the “Fibril Formation (%)” value was 10% and the IC50 is 1170 ± 30 nM. Besides, the “Fibril Formation (%)” value in data set [3] (V122I-TTR 3.6 μM, 37° C.) is given as 19%. The same compound showed an IC50 in data set [3] (V122I-TTR fixed at 3.6 μM, ten compound concentrations) of 1610 nM. In addition, the IC50 at 72 h in data set [2] is more than 400000 nM.
With `CNC[C@H](O)[C@@H](O)[C@H](O)[C@H](O)CO.O=C(O)c1ccc2nc(-c3cc(Cl)cc(Cl)c3)oc2c1` [Tafamidis meglumine, N-methyl D-(2,3,4,5,6-pentahydroxy-hexyl)-ammonium; 2-(3,5-dichloro-phenyl)-benzoxazole-6-carboxylate], the “FAP patients with improvement of symptoms” value with FAP patients was “approximately 60%”.
As to `O=C(O)c1cc(-c2ccc(F)cc2F)cc(I)c1O` [iododiflunisal], the “brain Abeta levels and deposition, cognitive function” value with AD/TTR+/− mice is “decreased brain Abeta levels and deposition”.

Usually melting point stands for the temperature of the solid-liquid transition.
